Experimental findings from patent US20260234180A1, “AMINO ACID DERIVATIVE, PREPARATION METHOD THEREFOR, AND PHARMACEUTICAL COMPOSITION FOR TREATING HEPATITIS, COMPRISING SAME” (priority 2021, published 2026) are described below.

Structures are written as SMILES.

This assay concerns the target T1, NTCP (Na+ taurocholate cotransporting peptide), HepG2-hNTCP-C4 cell line (Homo sapiens, UniProt Q14973).
T1 construct: expressed in transfected cells; host or cells: HepG2-hNTCP-C4 (HepG2 cells expressing human NTCP)
T1 sequence (Q14973 1-349): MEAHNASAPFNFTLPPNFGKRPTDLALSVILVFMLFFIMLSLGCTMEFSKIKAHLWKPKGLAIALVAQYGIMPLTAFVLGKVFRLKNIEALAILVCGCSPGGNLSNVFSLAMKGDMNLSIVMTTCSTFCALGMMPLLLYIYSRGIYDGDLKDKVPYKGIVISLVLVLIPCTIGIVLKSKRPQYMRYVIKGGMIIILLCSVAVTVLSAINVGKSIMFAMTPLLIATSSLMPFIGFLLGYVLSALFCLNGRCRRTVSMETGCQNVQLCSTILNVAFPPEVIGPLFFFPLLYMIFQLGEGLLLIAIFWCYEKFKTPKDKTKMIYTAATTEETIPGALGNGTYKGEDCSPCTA
Kind of assay: Inhibition of binding between FITC-labelled PreS1 and NTCP expressing cell line, flow cytometry. The conditions noted are these: for difference in degree of competitive inhibition versus Comparative Example 2 (UDCA) / difference in degree of competitive inhibition versus the parent bile acid Comparative Example: compared to the HBV-induced group (PreS1-FITC) solely treated with PreS1; for relative fluorescence intensity in comparison with the parent bile acid Comparative Example: vs Comparative Example 2 (UDCA), 5 (DCA) or 6 (CDCA), method as Experimental Example 1-1; for ability to inhibit the binding between PreS1 and NTCP expressing cell lines (bile acid series) / relative fluorescence intensity compared to Comparative Example 1 (LCA): compound 50 µM; for difference in degree of competitive inhibition versus the parent bile acid Comparative Example: vs Comparative Example 5 or 6; for relative fluorescence intensity compared to Comparative Example 1 (LCA): 20 nM PreS1, 4° C., 2 hours, lower = more inhibited binding. The method, then:
HepG2-hNTCP-C4 cell line, a cell line expressing NTCP, was seeded in a 6 well plate at a density of 2×10^5/well and incubated at 4° C. for 30 minutes when the confluency reached 80% after overnight incubation for 2 days. Thereafter, 20 nM PreS1 (Myr-GTNL […]-Lys(FITC) (SEQ ID NO: 1)) and the compounds in Example 1, Examples 38 to 56 or the compound in Comparative Example 1 were treated by diluting in culture media at 4° C. at a concentration of 50 µM respectively, and the media was suctioned after 2 hours, followed by washing 3 times with 4° C. PBS. In order to take the cells off from the plate, 500 μl of 0.5 mM EDTA PBS solution was treated, and then incubation was performed at 37° C. for 15 minutes to check whether the cells fell off through an optical microscope. After taking off the cells by pipetting, the cells were collected in a 1.5 ml tube and centrifuged (4000 rpm, 4° C., 3 min). After suctioning the supernatant, the pellet was washed 3 times with 4° C. PBS, and then green fluorescence was measured via flow cytometry. In this case, taurocholic acid (TCA), a compound known as a substrate of NTCP to reduce the entry of HBV or HDV, was used as a positive control group.
In the graph at the top of FIG. 1, black (1) and red (2) indicate a negative control group with no treatment and an HBV-induced group (HBV preS1) solely treated with PreS1, respectively. Blue (HBV preS1+HBV entry inhibitor) (3) is the fluorescence value for each of Examples or Comparative Examples, evaluated that the closer to the negative control group, the more inhibited the binding between PreS1 and the NTCP cell line.
The experimental method was the same as in the Experimental Example 1-1, and 20 nM PreS1 and each compound were treated at 4 concentrations (0.2 μM, 2 μM, 10 μM, 50 μM).
With an expectation that there is a structure-activity relationship among compounds composed of bile acid and amino acids, for each of bile acids in Comparative Example 1 (lithocholic acid, LCA), Comparative Example 2 (ursodeoxycholic acid, UDCA), Comparative Example 3 (cholic acid, CA), Comparative Example 4 (hyodeoxycholic acid, HDCA), Comparative Example 5 (deoxycholic acid, DCA), and Comparative Example 6 (chenodeoxycholic acid, CDCA), an evaluation experiment was conducted on an ability to inhibit the binding between PreS1 and NTCP expressing cell lines, and also for Examples 1 (LCA-Ile) and Example 44 (LCA-Val) as well as the compounds in Example 2 (UDCA-Ile), Example 3 (UDCA-Val), Example 6 (CA-Ile), Example 7 (CA-Val), Example 8 (HDCA-Ile), Example 9 (HDCA-Val), Example 10 (DCA-Ile), Example 11 (DCA-Val), Example 14 (CDCA-Ile), and Example 15 (CDCA-Val) in which bile acid parts (lithocholic acid) of Example 1 (LCA-Ile) and Example 44 (LCA-Val) were substituted with other types of bile acids in Comparative Examples 2 to 6, an evaluation experiment was conducted on an ability to inhibit the binding between PreS1 and NTCP expressing cell lines. The experimental method was the same as in the Experimental Example 1-1, and 18 compounds in the Comparative Examples 1 to 6, Examples 1 to 3, Examples 6 to 11, Examples 14 to 15, and Example 44 were treated at a concentration of 50 µM along with 20 nM PreS1.
In FIG. 9, an evaluation experiment was conducted to check a degree of inhibiting the binding between PreS1 and NTCP expressing cell lines for compounds in Examples 4 to 5, Examples 12 to 13, Examples 16 to 17, and Comparative Examples 2 (ursodeoxycholic acid, UDCA), Comparative Examples 5 (deoxycholic acid, DCA), and Comparative Examples 6 (chenodeoxycholic acid, CDCA) according to the present disclosure. The experimental method was the same as the Experimental Example 1-1.
In the Experimental Examples 1-4, it was determined whether there is additionally concentration dependence for Example 4 (UDCA-Trp), a compound with good inhibitory ability. […]

As to `C[C@H](CCC(=O)N[C@@H](Cc1c[nH]c2ccccc12)C(=O)O)[C@H]1CC[C@H]2[C@@H]3[C@@H](O)C[C@@H]4C[C@H](O)CC[C@]4(C)[C@H]3CC[C@]12C` [Example 4, (S)-2-((R)-4-((3R,5S,7S,8R,9S,10S,13R,14S,17R)-3,7-dihydroxy-10,13-dimethyl-hexadecahydro-1H-cyclopenta[a]phenanthren-17-yl)pentanamido)-3-(1H-indol-3-yl)propanoic acid], the “difference in degree of competitive inhibition versus Comparative Example 2 (UDCA)” value was “about 2 times” and the “relative fluorescence intensity in comparison with the parent bile acid Comparative Example” value is “low”. Besides, for the setting “2 μM, 10 μM, 20 μM, 50 μM, 20 nM PreS1”, the “effect of inhibiting the binding between PreS1 and NTCP expressing cell lines by treatment concentration” value is on record as “concentration dependent”. Regarding `C[C@H](CCC(=O)N[C@@H](Cc1ccc(O)cc1)C(=O)O)[C@H]1CC[C@H]2[C@@H]3[C@@H](O)C[C@@H]4C[C@H](O)CC[C@]4(C)[C@H]3CC[C@]12C` [Example 5, (S)-2-((R)-4-((3R,5S,7S,8R,9S,10S,13R,14S,17R)-3,7-dihydroxy-10,13-dimethyl-hexadecahydro-1H-cyclopenta[a]phenanthren-17-yl)pentanamido)-3-(4-hydroxyphenyl)propanoic acid], the “difference in degree of competitive inhibition versus Comparative Example 2 (UDCA)” value is recorded as “about 2 times” and the “relative fluorescence intensity in comparison with the parent bile acid Comparative Example” value is reported as “low”.

Take `CC[C@@H](C)[C@H](NC(=O)CC[C@@H](C)[C@H]1CC[C@H]2[C@@H]3C[C@H](O)[C@@H]4C[C@H](O)CC[C@]4(C)[C@H]3CC[C@]12C)C(=O)O` [Example 8, (2S,3R)-2-((R)-4-((3R,5R,6S,8S,9S,10R,13R,14S,17R)-3,6-dihydroxy-10,13-dimethyl-hexadecahydro-1H-cyclopenta[a]phenanthren-17-yl)pentanamido)-3-methylpentanoic acid]: for the setting “20 nM PreS1”, the “ability to inhibit the binding between PreS1 and NTCP expressing cell lines (bile acid series)” value is “relatively excellent”. The same measure, in the same setting: with `CC(C)[C@H](NC(=O)CC[C@@H](C)[C@H]1CC[C@H]2[C@@H]3C[C@H](O)[C@@H]4C[C@H](O)CC[C@]4(C)[C@H]3CC[C@]12C)C(=O)O` [Example 9, (S)-2-((R)-4-((3R,5R,6S,8S,9S,10R,13R,14S,17R)-3,6-dihydroxy-10,13-dimethyl-hexadecahydro-1H-cyclopenta[a]phenanthren-17-yl)pentanamido)-3-methylbutanoic acid] the entry was “relatively excellent”. On to `C[C@H](CCC(=O)N[C@@H](Cc1c[nH]c2ccccc12)C(=O)O)[C@H]1CC[C@H]2[C@@H]3CC[C@@H]4C[C@H](O)CC[C@]4(C)[C@H]3C[C@H](O)[C@]12C` [Example 12, (S)-2-((R)-4-((3R,5R,8R,9S,10S,12S,13R,14S,17R)-3,12-dihydroxy-10,13-dimethyl-hexadecahydro-1H-cyclopenta[a]phenanthren-17-yl)pentanamido)-3-(1H-indol-3-yl)propanoic acid], for which the “difference in degree of competitive inhibition versus the parent bile acid Comparative Example” value was 11.6% and the “relative fluorescence intensity in comparison with the parent bile acid Comparative Example” value is reported as “the same or lower”.

On to `C[C@H](CCC(=O)N[C@@H](Cc1ccc(O)cc1)C(=O)O)[C@H]1CC[C@H]2[C@@H]3CC[C@@H]4C[C@H](O)CC[C@]4(C)[C@H]3C[C@H](O)[C@]12C` [Example 13, (S)-2-((R)-4-((3R,5R,8R,9S,10S,12S,13R,14S,17R)-3,12-dihydroxy-10,13-dimethyl-hexadecahydro-1H-cyclopenta[a]phenanthren-17-yl)pentanamido)-3-(4-hydroxyphenyl)propanoic acid], for which the “relative fluorescence intensity in comparison with the parent bile acid Comparative Example” value is given as “the same or lower”. `CC[C@@H](C)[C@H](NC(=O)CC[C@@H](C)[C@H]1CC[C@H]2[C@@H]3[C@H](O)C[C@@H]4C[C@H](O)CC[C@]4(C)[C@H]3CC[C@]12C)C(=O)O` [Example 14, (2S,3R)-2-((R)-4-((3R,5S,7R,8R,9S,10S,13R,14S,17R)-3,7-dihydroxy-10,13-dimethyl-hexadecahydro-1H-cyclopenta[a]phenanthren-17-yl)pentanamido)-3-methylpentanoic acid]: the “ability to inhibit the binding between PreS1 and NTCP expressing cell lines (bile acid series)” value (20 nM PreS1) is reported as “relatively excellent”. In the case of `C[C@H](CCC(=O)N[C@@H](Cc1c[nH]c2ccccc12)C(=O)O)[C@H]1CC[C@H]2[C@@H]3[C@H](O)C[C@@H]4C[C@H](O)CC[C@]4(C)[C@H]3CC[C@]12C` [Example 16, (S)-2-((R)-4-((3R,5S,7R,8R,9S,10S,13R,14S,17R)-3,7-dihydroxy-10,13-dimethyl-hexadecahydro-1H-cyclopenta[a]phenanthren-17-yl)pentanamido)-3-(1H-indol-3-yl)propanoic acid], the “difference in degree of competitive inhibition versus the parent bile acid Comparative Example” value was 17.8% and the “relative fluorescence intensity in comparison with the parent bile acid Comparative Example” value was “low”. On to `C[C@H](CCC(=O)N[C@@H](Cc1ccc(O)cc1)C(=O)O)[C@H]1CC[C@H]2[C@@H]3[C@H](O)C[C@@H]4C[C@H](O)CC[C@]4(C)[C@H]3CC[C@]12C` [Example 17, (S)-2-((R)-4-((3R,5S,7R,8R,9S,10S,13R,14S,17R)-3,7-dihydroxy-10,13-dimethyl-hexadecahydro-1H-cyclopenta[a]phenanthren-17-yl)pentanamido)-3-(4-hydroxyphenyl)propanoic acid], for which the “relative fluorescence intensity in comparison with the parent bile acid Comparative Example” value is listed as “low”. In the case of `C[C@H](CCC(=O)N1CCCC1C(=O)O)[C@H]1CC[C@H]2[C@@H]3CC[C@@H]4C[C@H](O)CC[C@]4(C)[C@H]3CC[C@]12C` (stereo partly drawn) [Example 38, 1-((R)-4-((3R,5R,8R,9S,10S,13R,14S,17R)-3-hydroxy-10,13-dimethyl-hexadecahydro-1H-cyclopenta[a]phenanthren-17-yl)pentanoyl)pyrrolidine-2-carboxylic acid], the “relative fluorescence intensity compared to Comparative Example 1 (LCA)” value is “low and lower”. On to `C[C@H](O)[C@H](NC(=O)CC[C@@H](C)[C@H]1CC[C@H]2[C@@H]3CC[C@@H]4C[C@H](O)CC[C@]4(C)[C@H]3CC[C@]12C)C(=O)O` [Example 39, (2S,3S)-3-hydroxy-2-((R)-4-((3R,5R,8R,9S,10S,13R,14S,17R)-3-hydroxy-10,13-dimethyl-hexadecahydro-1H-cyclopenta[a]phenanthren-17-yl)pentanamido)butanoic acid], for which the “relative fluorescence intensity compared to Comparative Example 1 (LCA)” value is “low and lower”.
